The text below walks through data of ChEMBL document CHEMBL1124732, “Synthesis, conformation, and immunosuppressive activities of three analogues of cyclosporin A modified in the 1-position” (1990).

The structures appear in SMILES notation.

A short description of this experiment: Relative immunosuppressive activity tested against inhibition of concanavalin A stimulated thymocytes. It is filed as functional. Also on record: scale not given: the % may be the effect or the level left.

Turning to `CC#CC[C@@H](C)[C@@H](O)[C@H]1C(=O)N[C@@H](CC)C(=O)N(C)CC(=O)N(C)[C@@H](CC(C)C)C(=O)N[C@@H](C(C)C)C(=O)N(C)[C@@H](CC(C)C)C(=O)N[C@@H](C)C(=O)N[C@H](C)C(=O)N(C)[C@@H](CC(C)C)C(=O)N(C)[C@@H](CC(C)C)C(=O)N(C)[C@@H](C(C)C)C(=O)N1C`, the Activity turned out to be 10%.
